In patent US20120295907A1, “INSECTICIDAL COMPOUNDS” (SYNGENTA CROP PROTECTION, LLC, priority 2009, published 2012):

What was measured:
Assay type in all cases: in vivo
Thrips tabaci = Thrips tabaci (Onion Thrips) sunflower leaf disc spray test; settings: foliar, 168 h, 200 ppm spray on sunflower leaf discs, population of mixed ages, 7 days, mortality
Myzus persicae = Myzus persicae (Green Peach Aphid) sunflower leaf disc spray test; settings: foliar, 144 h, 200 ppm spray on sunflower leaf discs, aphid population of mixed ages, 6 DAT, mortality
Spodoptera littoralis = Spodoptera littoralis (Egyptian Cotton Leafworm) cotton leaf disc spray test; settings: foliar, 72 h, 200 ppm spray on cotton leaf discs, L1 larvae, mortality, feeding behavior, growth regulation 3 DAT
Diabrotica balteata = Diabrotica balteata (Corn Root Worm) artificial diet MTP test; settings: 120 h, 200 ppm (concentration in well 18 ppm), L2 larvae, 5 days, larval mortality, growth regulation
Tetranychus urticae = Tetranychus urticae (Two-Spotted Spider Mite) bean leaf disc spray test; settings: foliar, 192 h, 200 ppm spray on bean leaf discs, mite populations of mixed ages, 8 days, egg, larval and adult mortality, read-out: control of Tetranychus urticae
Heliothis virescens = Heliothis virescens (Tobacco Budworm) egg test on artificial diet; settings: 96 h, 200 ppm (concentration in well 18 ppm), eggs 0-24 h old on artificial diet, 4 days, egg mortality, larval mortality, growth regulation
Plutella xylostella = Plutella xylostella (Diamond Back Moth) artificial diet MTP test; settings: 144 h, 200 ppm (concentration in well 18 ppm), L2 larvae, 6 days, larval mortality, growth regulation

Measured: pest or weed control at 200 ppm

CCc1cc(C(F)(C(F)(F)F)C(F)(F)C(F)(F)F)cc(C)c1NC(=O)c1cccc(NC(=O)c2ccc(F)cc2Cl)c1OC (stereo not drawn) [A3, N-[2-ethyl-4-(1,2,2,3,3,3-hexafluoro-1-trifluoromethylpropyl)-6-methylphenyl]-3-(4-fluoro-2-chlorobenzoylamino)-2-methoxybenzamide]
not listed: Heliothis virescens | Plutella xylostella
≥ 80%: all other assays above

CCc1cc(C(F)(C(F)(F)F)C(F)(F)C(F)(F)F)cc(C)c1NC(=O)c1cccc(NC(=O)c2ccc(C#N)cc2)c1OC (stereo not drawn) [A4, N-[2-ethyl-4-(1,2,2,3,3,3-hexafluoro-1-trifluoromethylpropyl)-6-methyl-phenyl]-3-(4-cyanobenzoylamino)-2-methoxybenzamide]
≥ 80%: all assays above

CCc1cc(C(F)(C(F)(F)F)C(F)(F)C(F)(F)F)cc(C)c1NC(=O)c1cccc(NC(=O)c2ccnc(Cl)c2)c1OC (stereo not drawn) [A10]
≥ 80%: all assays above

CCc1cc(C(F)(C(F)(F)F)C(F)(F)C(F)(F)F)cc(C)c1NC(=O)c1cccc(NC(=O)c2ccc(Cl)nc2)c1OC (stereo not drawn) [A17]
≥ 80%: all assays above

CCc1cc(C(F)(C(F)(F)F)C(F)(F)C(F)(F)F)cc(C)c1NC(=O)c1cccc(NC(=O)c2ccc([N+](=O)[O-])cc2)c1OC (stereo not drawn) [A18]
≥ 80%: all assays above

CCc1cc(C(F)(C(F)(F)F)C(F)(F)C(F)(F)F)cc(C)c1NC(=O)c1cccc(NC(=O)c2ccc([N+](=O)[O-])cc2C)c1OC (stereo not drawn) [A22]
not listed: Heliothis virescens
≥ 80%: all other assays above

COc1c(NC(=O)c2ccccc2C)cccc1C(=O)Nc1c(Cl)cc(C(F)(C(F)(F)F)C(F)(F)C(F)(F)F)cc1Br (stereo not drawn) [B4]
≥ 80%: all assays above

COc1c(NC(=O)c2ccc(SC)cc2)cccc1C(=O)Nc1c(Cl)cc(C(F)(C(F)(F)F)C(F)(F)C(F)(F)F)cc1Br (stereo not drawn) [B26]
≥ 80%: all assays above

COc1ccc(C(=O)Nc2cccc(C(=O)Nc3c(Cl)cc(C(F)(C(F)(F)F)C(F)(F)C(F)(F)F)cc3Br)c2OC)cc1 (stereo not drawn) [B28]
not listed: Heliothis virescens
≥ 80%: all other assays above

COc1c(NC(=O)c2ccccc2Br)cccc1C(=O)Nc1c(Cl)cc(C(F)(C(F)(F)F)C(F)(F)C(F)(F)F)cc1Br (stereo not drawn) [B36]
≥ 80%: all assays above

COc1c(NC(=O)c2cc(C)nn2C)cccc1C(=O)Nc1c(Cl)cc(C(F)(C(F)(F)F)C(F)(F)C(F)(F)F)cc1Br (stereo not drawn) [B42]
≥ 80%: all assays above

COc1c(NC(=O)c2ccncc2)cccc1C(=O)Nc1c(Cl)cc(C(F)(C(F)(F)F)C(F)(F)C(F)(F)F)cc1Br (stereo not drawn) [B54]
not listed: Heliothis virescens
≥ 80%: all other assays above

COc1c(NC(=O)c2ccncc2Cl)cccc1C(=O)Nc1c(Cl)cc(C(F)(C(F)(F)F)C(F)(F)C(F)(F)F)cc1Br (stereo not drawn) [B66]
≥ 80%: all assays above

COc1c(NC(=O)c2ccccc2[N+](=O)[O-])cccc1C(=O)Nc1c(Cl)cc(C(F)(C(F)(F)F)C(F)(F)C(F)(F)F)cc1Br (stereo not drawn) [B80]
≥ 80%: all assays above

COc1c(NC(=O)c2ccncc2C)cccc1C(=O)Nc1c(Cl)cc(C(F)(C(F)(F)F)C(F)(F)C(F)(F)F)cc1Br (stereo not drawn) [B82]
≥ 80%: all assays above

COc1c(NC(=O)c2ccnc(C)c2Cl)cccc1C(=O)Nc1c(Cl)cc(C(F)(C(F)(F)F)C(F)(F)C(F)(F)F)cc1Br (stereo not drawn) [B93]
≥ 80%: all assays above

COc1c(NC(=O)c2cncnc2)cccc1C(=O)Nc1c(Cl)cc(C(F)(C(F)(F)F)C(F)(F)C(F)(F)F)cc1Br (stereo not drawn) [B111]
≥ 80%: all assays above

COc1c(NC(=O)c2ccnc(F)c2)cccc1C(=O)Nc1c(Cl)cc(C(F)(C(F)(F)F)C(F)(F)C(F)(F)F)cc1Br (stereo not drawn) [B151]
≥ 80%: all assays above

COc1c(NC(=O)c2cc(F)ccc2F)cccc1C(=O)Nc1c(Cl)cc(C(F)(C(F)(F)F)C(F)(F)C(F)(F)F)cc1Br (stereo not drawn) [B153]
≥ 80%: all assays above

COc1c(NC(=O)c2ccc(Cl)cc2Cl)cccc1C(=O)Nc1c(Cl)cc(C(F)(C(F)(F)F)C(F)(F)C(F)(F)F)cc1Br (stereo not drawn) [B155]
≥ 80%: all assays above

COc1c(NC(=O)c2cccc(Cl)c2C)cccc1C(=O)Nc1c(Cl)cc(C(F)(C(F)(F)F)C(F)(F)C(F)(F)F)cc1Br (stereo not drawn) [B156]
≥ 80%: all assays above

COc1c(NC(=O)c2cc(F)cc(F)c2)cccc1C(=O)Nc1c(Cl)cc(C(F)(C(F)(F)F)C(F)(F)C(F)(F)F)cc1Br (stereo not drawn) [B168]
≥ 80%: all assays above

COc1c(NC(=O)c2ccc([N+](=O)[O-])c(N)c2)cccc1C(=O)Nc1c(Cl)cc(C(F)(C(F)(F)F)C(F)(F)C(F)(F)F)cc1Br (stereo not drawn) [B174]
≥ 80%: all assays above

CCc1cc(C(F)(C(F)(F)F)C(F)(F)F)cc(C)c1NC(=O)c1cccc(NC(=O)c2ccc(F)cc2Cl)c1OC [J27]
not listed: Spodoptera littoralis
≥ 80%: all other assays above
